Series [1] in a line: in vitro. The note with it: human.
Series [2] has as its system influenza virus (A/WSN/33). In words: microbe, parasite or virus in culture. It counts as cell-based. The note with it: for IC50: unidentified influenza virus, WSN, MDCK, 24 h, read-out: Viral Yield Reduction Assay IC50.
A short description of series [3]: in vitro. To be noted: dog.
The target of a further series is influenza RNP (Influenza A virus, UniProt P15659). In words: cell-based.
The target of series [4] is PAC (C-terminal domain of PA, residues 256–716 of A/WSN/33) (Influenza A virus, UniProt P15659). In words: biochemical. Format: binding, influenza A/WSN/33.

Bounds are passed on as bounds.

Take `O=c1c2ccccc2nc(NCCN2CCNCC2)n1-c1ccccc1` [Compound S1a, 2-[(2-(Piperazino)ethyl)amino]-3-phenylquinazolin-4(3H)-one]: the CC50 at 24 h in the series “in vitro [1]” was more than 100 µM.

As for `Cc1ccccc1-n1c(NCCCN2CCOCC2)nc2ccccc2c1=O` [Compound S1b, 2-[(3-Morpholinopropyl)amino]-3-(2-methylphenyl)quinazolin-4(3H)-one], the IC50 in series [2] was more than 100 µM; against influenza RNP it was 87.8 ± 21.8 µM. Also, the CC50 at 24 h in the series “in vitro [3]” and in “in vitro [1]” was more than 100 µM each time.

`Cc1ccc(-n2c(NCCCN3CCOCC3)nc3ccccc3c2=O)cc1` [Compound S1c, 2-[(3-Morpholinopropyl)amino]-3-(4-methylphenyl)quinazolin-4(3H)-one]: the CC50 at 24 h in the series “in vitro [1]” was more than 100 µM.

In the case of `O=c1c2ccccc2nc(NCCCN2CCOCC2)n1-c1ccc(F)cc1` [Compound S1d, 3-(4-Fluorophenyl)-2-((3-morpholinopropyl)amino)quinazolin-4(3H)-one], the CC50 at 24 h in the series “in vitro [1]” is more than 100 µM.

In series [4], `O=c1c2c(O)c(Cc3ccccc3)c(=O)n(CCO)c2n(-c2ccccc2)c(=O)n1-c1ccccc1` [Compound S2a, 6-benzyl-5-hydroxy-8-(2-hydroxyethyl)-1,3-diphenylpyrido[2,3-d]pyrimidine-2,4,7(1H,3H,8H)-trione] yielded a Kd of 1.77 ± 0.78 µM. In the series on MDCK cells, the “cytotoxicity in MDCK cells (in words)” value is listed as “slight cytotoxicity at their highest tested concentration”. Also, the “inhibition of influenza viral yield (in words)” value (shortened to “inhibition”) in series [2] is “dose-dependent inhibition of influenza virus”. In addition, the IC50 turned out to be 7.74 ± 6.02 µM in series [2] and 9.69 ± 3 µM against influenza RNP. The CC50 at 24 h in the series “in vitro [3]” is more than 100 µM; in “in vitro [1]”, 84.6 ± 17.3 µM.

In turn, `CC(c1ccccc1)c1c(O)c2c(=O)n(-c3ccccc3)c(=O)n(-c3ccccc3)c2[nH]c1=O` (centres unmarked) [Compound S2b, 5-hydroxy-1,3-diphenyl-6-(1-phenylethyl)pyrido[2,3-d]pyrimidine-2,4,7(1H,3H,8H)-trione] displayed a Kd in series [4] of 16.2 ± 8.3 µM. Moreover, the “inhibition” value in series [2] is recorded as “dose-dependent inhibition of influenza virus”. Further, the IC50 was 4.96 ± 3.84 µM in series [2] and 14.2 ± 3.6 µM against influenza RNP. Moreover, the values for the CC50 at 24 h in the series “in vitro [3]” and in “in vitro [1]” were 42.8 ± 9 µM and more than 100 µM, respectively.

Regarding `CC(c1ccccc1)c1c(O)c2c(=O)n(-c3ccccc3)c(=O)n(-c3ccccc3)c2n(C)c1=O` (centres unmarked) [Compound S2c, 5-hydroxy-8-methyl-1,3-diphenyl-6-(1-phenylethyl)pyrido[2,3-d]pyrimidine-2,4,7(1H,3H,8H)-trione], the CC50 at 24 h in the series “in vitro [1]” worked out at 97.1 ± 16.1 µM.

For `COc1c(C(C)c2ccccc2)c(=O)n(C)c2c1c(=O)n(-c1ccccc1)c(=O)n2-c1ccccc1` (centres unmarked) [Compound S2d, 5-methoxy-8-methyl-1,3-diphenyl-6-(1-phenylethyl)pyrido[2,3-d]pyrimidine-2,4,7(1H,3H,8H)-trione], in series [4], the Kd is more than 25 µM. The “inhibition” value in series [2] is reported as “dose-dependent inhibition of influenza virus”. Moreover, the IC50 in series [2] is 3.18 ± 2.44 µM; against influenza RNP it was more than 12.5 µM. In addition, the values for the CC50 at 24 h in “in vitro [3]” and in “in vitro [1]” were 35.6 ± 9.24 µM and 66.6 ± 6.09 µM, respectively.

On to `CC(=O)n1c(=O)c(C(C)c2ccccc2)c(O)c2c(=O)n(-c3ccccc3)c(=O)n(-c3ccccc3)c21` (centres unmarked) [Compound S2e, 8-acetyl-5-hydroxy-1,3-diphenyl-6-(1-phenylethyl)pyrido[2,3-d]pyrimidine-2,4,7(1H,3H,8H)-trione], for which the affinity in series [4], expressed as Kd, was 50.9 ± 25.5 µM. For the same compound, in series [2], the “inhibition” value was “dose-dependent inhibition of influenza virus”. The IC50 in series [2] is 5.11 ± 4.22 µM; against influenza RNP, 6.69 ± 7.49 µM. For the same compound, the values for the CC50 at 24 h in the series “in vitro [3]” and in “in vitro [1]” were 53.1 ± 9.25 µM and more than 100 µM, respectively.

As for `Cn1c(=O)c(Nc2ccccc2)c(O)c2c(=O)n(-c3ccccc3)c(=O)n(-c3ccccc3)c21` [Compound S2f, 5-hydroxy-8-methyl-1,3-diphenyl-6-(phenylamino)pyrido[2,3-d]pyrimidine-2,4,7(1H,3H,8H)-trione], the “inhibition” value in series [2] is recorded as “inability to attenuate influenza virus”. Also, the IC50 was more than 100 µM in series [2] and 62.4 ± 22.4 µM at influenza RNP. For the same compound, the CC50 at 24 h in the series “in vitro [3]” and in the series “in vitro [1]” was more than 100 µM in each case.
